In ChEMBL document CHEMBL1147193, “New 5-substituted thiazolo[3,2-b][1,2,4]triazol-6-ones: synthesis and anticancer evaluation” (2007):

What was measured:
Type in all cases: functional
OVCAR-5 = assay: Growth inhibition of human OVCAR5 cells after 48 hrs by SRB protein assay; settings: OVCAR-5, 48 h
OVCAR-4 = assay: Growth inhibition of human OVCAR4 cells after 48 hrs by SRB protein assay; settings: OVCAR-4, 48 h
SK-OV-3 = assay: Growth inhibition of human SK-OV-3 cells after 48 hrs by SRB protein assay; settings: SK-OV-3, 48 h
SK-MEL-5 = assay: Growth inhibition of human SK-MEL-5 cells after 48 hrs by SRB protein assay; settings: SK-MEL-5, 48 h
UACC-62 = assay: Growth inhibition of human UACC62 cells after 48 hrs by SRB protein assay; settings: UACC-62, 48 h
MOLT-4 = assay: Growth inhibition of human MOLT4 cells after 48 hrs by SRB protein assay; settings: MOLT-4, 48 h
NCI-H460 [1] = assay: Growth inhibition of human NCI-H460 cells after 48 hrs by SRB protein assay; settings: NCI-H460, 48 h
BT-549 = assay: Growth inhibition of human BT549 cells after 48 hrs by SRB protein assay; settings: BT-549, 48 h
IGROV-1 = assay: Growth inhibition of human IGROV1 cells after 48 hrs by SRB protein assay; settings: IGROV-1, 48 h
UO-31 = assay: Growth inhibition of human UO31 cells after 48 hrs by SRB protein assay; settings: UO-31, 48 h
HCT-116 = assay: Growth inhibition of human HCT116 cells after 48 hrs by SRB protein assay; settings: HCT-116, 48 h
HOP-62 = assay: Growth inhibition of human HOP62 cells after 48 hrs by SRB protein assay; settings: HOP-62, 48 h
NCI-H460 [2] = assay: Anticancer activity against human NCI-H460 cells assessed as growth of cells at 100 uM relative to untreated cells
NCI-H522 = assay: Growth inhibition of human NCI-H522 cells after 48 hrs by SRB protein assay; settings: NCI-H522, 48 h
786-0 = assay: Growth inhibition of human 786-0 cells after 48 hrs by SRB protein assay; settings: 786-0, 48 h
NCI-H322M = assay: Growth inhibition of human NCI-H322M cells after 48 hrs by SRB protein assay
ACHN = assay: Growth inhibition of human ACHN cells after 48 hrs by SRB protein assay
PC-3 = assay: Growth inhibition of human PC3 cells after 48 hrs by SRB protein assay; settings: PC-3, 48 h
SK-MEL-28 = assay: Growth inhibition of human SK-MEL-28 cells after 48 hrs by SRB protein assay; settings: SK-MEL-28, 48 h
LOX IMVI = assay: Growth inhibition of human LOX IMVI cells after 48 hrs by SRB protein assay
SF-268 = assay: Anticancer activity against human SF268 cells assessed as growth of cells at 100 uM relative to untreated cells
COLO 205 = assay: Growth inhibition of human COLO205 cells after 48 hrs by SRB protein assay; settings: COLO 205, 48 h
UACC-257 = assay: Growth inhibition of human UACC257 cells after 48 hrs by SRB protein assay; settings: UACC-257, 48 h
HCT-15 = assay: Growth inhibition of human HCT15 cells after 48 hrs by SRB protein assay; settings: HCT-15, 48 h
CCRF-CEM = assay: Growth inhibition of human CCRF-CEM cells after 48 hrs by SRB protein assay
RXF 393 = assay: Growth inhibition of human RXF393 cells after 48 hrs by SRB protein assay; settings: RXF 393, 48 h
KM12 = assay: Growth inhibition of human KM12 cells after 48 hrs by SRB protein assay; settings: KM12, 48 h
M14 = assay: Growth inhibition of human M14 cells after 48 hrs by SRB protein assay; settings: M14, 48 h
K562 = assay: Growth inhibition of human K562 cells after 48 hrs by SRB protein assay; settings: K562, 48 h
NCI/ADR-RES = assay: Growth inhibition of human NCI/ADR-RES cells after 48 hrs by SRB protein assay
A549 = assay: Growth inhibition of human A549/ATCC cells after 48 hrs by SRB protein assay; settings: A549, 48 h
SK-MEL-2 = assay: Growth inhibition of human SK-MEL-2 cells after 48 hrs by SRB protein assay; settings: SK-MEL-2, 48 h
[3] = Growth inhibition of human MALME 3M cells after 48 hrs by SRB protein assay
MCF7 = assay: Growth inhibition of human MCF7 cells after 48 hrs by SRB protein assay; settings: MCF7, 48 h
U-251 = assay: Growth inhibition of human U251 cells after 48 hrs by SRB protein assay; settings: U-251, 48 h
MDA-MB-435 = assay: Growth inhibition of human MDA-MB-435 cells after 48 hrs by SRB protein assay; settings: MDA-MB-435, 48 h
TK-10 = assay: Growth inhibition of human TK10 cells after 48 hrs by SRB protein assay; settings: TK-10, 48 h
SW-620 = assay: Growth inhibition of human SW620 cells after 48 hrs by SRB protein assay; settings: SW-620, 48 h
HT-29 = assay: Growth inhibition of human HT29 cells after 48 hrs by SRB protein assay; settings: HT-29, 48 h
HOP-92 = assay: Growth inhibition of human HOP92 cells after 48 hrs by SRB protein assay; settings: HOP-92, 48 h

Which results are given for `O=C(CC1Sc2ncnn2C1=O)Nc1ccc(Cl)cc1` (stereo not drawn)?
GI50 (OVCAR-5): 22.4 µM; TGI (OVCAR-5; read-out: Log TGI (converted)): 56.2 µM; GI50 (OVCAR-4): 31.6 µM; TGI (OVCAR-4; read-out: Log TGI (converted)): 83.2 µM; GI50 (SK-OV-3): > 100 µM; TGI (SK-OV-3; read-out: Log TGI (converted)): > 100 µM; GI50 (SK-MEL-5): > 100 µM; TGI (SK-MEL-5; read-out: Log TGI (converted)): > 100 µM; GI50 (UACC-62): > 100 µM; TGI (UACC-62; read-out: Log TGI (converted)): > 100 µM; GI50 (MOLT-4): 20 µM; TGI (MOLT-4; read-out: Log TGI (converted)): 47.9 µM; GI50 (NCI-H460 [1]): > 100 µM; TGI (NCI-H460 [1]; read-out: Log TGI (converted)): > 100 µM; GI50 (BT-549): 37.2 µM; TGI (BT-549; read-out: Log TGI (converted)): 95.5 µM; GI50 (IGROV-1): > 100 µM; TGI (IGROV-1; read-out: Log TGI (converted)): > 100 µM; GI50 (UO-31): 22.9 µM; TGI (UO-31; read-out: Log TGI (converted)): 45.7 µM; GI50 (HCT-116): 20 µM; TGI (HCT-116; read-out: Log TGI (converted)): 30.9 µM; GI50 (HOP-62): > 100 µM; TGI (HOP-62; read-out: Log TGI (converted)): > 100 µM; Activity (NCI-H460 [2]): 0%; GI50 (NCI-H522): 26.9 µM; TGI (NCI-H522; read-out: Log TGI (converted)): 64.6 µM; GI50 (786-0): 20.4 µM; TGI (786-0; read-out: Log TGI (converted)): 43.7 µM; GI50 (NCI-H322M): > 100 µM; TGI (NCI-H322M; read-out: Log TGI (converted)): > 100 µM; GI50 (ACHN): 17.4 µM; TGI (ACHN; read-out: Log TGI (converted)): 30.9 µM; GI50 (PC-3): 55 µM; TGI (PC-3; read-out: Log TGI (converted)): > 100 µM; GI50 (SK-MEL-28): 22.9 µM; TGI (SK-MEL-28; read-out: Log TGI (converted)): 57.5 µM; GI50 (LOX IMVI): 20.4 µM; TGI (LOX IMVI; read-out: Log TGI (converted)): 45.7 µM; Activity (SF-268): 107%; GI50 (COLO 205): 19.5 µM; TGI (COLO 205; read-out: Log TGI (converted)): 47.9 µM; GI50 (UACC-257): 40.7 µM; TGI (UACC-257; read-out: Log TGI (converted)): > 100 µM; GI50 (HCT-15): 15.8 µM; TGI (HCT-15; read-out: Log TGI (converted)): 40.7 µM; GI50 (CCRF-CEM): 19.1 µM; TGI (CCRF-CEM; read-out: Log TGI (converted)): 41.7 µM; GI50 (RXF 393): 25.1 µM; TGI (RXF 393; read-out: Log TGI (converted)): 51.3 µM; GI50 (KM12): > 100 µM; TGI (KM12; read-out: Log TGI (converted)): > 100 µM; GI50 (M14): 35.5 µM; TGI (M14; read-out: Log TGI (converted)): > 100 µM; GI50 (K562): 19.1 µM; TGI (K562; read-out: Log TGI (converted)): 43.7 µM; GI50 (NCI/ADR-RES): 38 µM; TGI (NCI/ADR-RES; read-out: Log TGI (converted)): > 100 µM; GI50 (A549): > 100 µM; TGI (A549; read-out: Log TGI (converted)): > 100 µM; GI50 (SK-MEL-2): > 100 µM; TGI (SK-MEL-2; read-out: Log TGI (converted)): > 100 µM; GI50 [3]: 14.8 µM; TGI ([3]; read-out: Log TGI (converted)): 38.9 µM; GI50 (MCF7): 43.7 µM; TGI (MCF7; read-out: Log TGI (converted)): > 100 µM; GI50 (U-251): 18.2 µM; TGI (U-251; read-out: Log TGI (converted)): 33.9 µM; GI50 (MDA-MB-435): 55 µM; TGI (MDA-MB-435; read-out: Log TGI (converted)): > 100 µM; GI50 (TK-10): 20.9 µM; TGI (TK-10; read-out: Log TGI (converted)): 39.8 µM; GI50 (SW-620): 32.4 µM; TGI (SW-620; read-out: Log TGI (converted)): 79.4 µM; GI50 (HT-29): 28.8 µM; TGI (HT-29; read-out: Log TGI (converted)): 75.9 µM; GI50 (HOP-92): 25.1 µM; TGI (HOP-92; read-out: Log TGI (converted)): 64.6 µM
